Source: patent US20100074932A1, “ANTIMICROBIAL COMPOSITIONS CONTAINING GALLIUM” (priority 2006, published 2010)

Legend:
[1] = on exposure of the coating to body fluid, based on relative solubilities in water
Excerpt: The differences in the solubility of the different salts in the composition will result in different and prolonged rates of release of the oligodynamic gallium in the coating composition when a device coated with the composition is exposed to body fluid. The amount of water in the final coating solution is about 30% of the total solvent weight.

[2] = tested on: Escherichia coli 6418; assay: Biofilm formation on catheter after two hours pre-attachment of bacteria, plate counting; type: cell-based; details: 0.2 mM gallium nitrate, 48 hours, compared to positive control with no gallium, FIG. 4
[3] = tested on: Escherichia coli 6418; assay: Microbial colonization of hydrogel coated latex foley catheter surface, plate counting; type: cell-based; details: 0.2 mM gallium nitrate, 48 hours, compared to positive control with no gallium, FIG. 3
Experimental: After 48 hours, catheter pieces were removed, microorganisms were recovered from the catheter surface and enumerated by plate counting methods.

Row | SMILES | order of release from the coating composition [1] | biofilm formation [2] | microbial colonization of the catheter surface [3]
1 | CC(=O)[O-].CC(=O)[O-].CC(=O)[O-].[Ga+3] [gallium acetate] | Then | – | –
2 | O=[N+]([O-])[O-].O=[N+]([O-])[O-].O=[N+]([O-])[O-].[Ga+3] [gallium nitrate] | – | reduced biofilm formation | reduced microbial colonization
3 | [I][Ga]([I])[I] [gallium iodide] | lastly | – | –
